System: HIV-1 cell line, CEMIIIB
Assay: Long term in vitro study, CEMIIIB cells, reverse transcriptase analysis
Format: cell-based
Design: Reverse transcriptase data: unit not given here
Procedure: A microtiter-based reveres transcriptase (RT) reaction is utilized (Buckheit et al (1991) AIDS Research and Human Retroviruses 7:295-302). Tritiated thymidine triphosphate (NEN)(TTP) is resuspended in distilled water at 5 Ci/ml. Poly rA and oligo dT are prepared as a stock solution which is kept at -20° C. The RT reaction buffer is prepared fresh on a daily basis and consists of 125 μl 1M EGTA, 125 μl water, 125 μl Triton X-100, 50 μl Tris (pH 7.4), 50 μl MDDT, and 40 μl 1M MgCl2. These three solutions are mixed together in a ratio of 1 part TTP, 2.5 parts poly rA:oligo dT, 2.5 parts reaction buffer and 4 parts distilled water. Ten microliters of this reaction mixture is placed in a round bottom microtiter place and 15 μl of virus containing supernatant is added and mixed. The plate is incubated at 37° C. and incubated for 60 minutes. Following reaction, the reaction volume is spotted onto filter mats, washed 6 times for 5 minutes each in a 5% sodium phosphate buffer, 2 times for 1 minute each in distilled water, 2 times for 1 minute each in 70% ethanol, and then dried. The dried filter mat is placed in a plastic sample bag, Betaplate scintillation fluid is added and the bag is heat sealed. Incorporated radioactivity is quantified utilizing a Wallac Microbeta scintillation counter.
Acute infection of most established human cell lines with HIV- I results in the eventual establishment of a constitutive virus-producing chronically infected cell line. The cells can be passaged for long periods of time in culture without loss of virus production. These cells may be utilized to evaluate the effects of anti-HIV compounds on syncytium formation or to evaluate the effects of anti-HIV compounds on levels of virus production from these cells. […] Each of the cells contains an integrated HIV genome or provirus. Chronically infected CEM, H9 and U937 cell lines have been prepared and cultured by Southern Research Institute, Frederick Md. and are available from them.
CEM-SS cells chronically infected with HIV isolate, for example SKI (CEM-SKI) are cultured in RPM1640 tissue culture medium supplemented with 10% fetal bovine serum and antibiotics. Selection is performed by culturing the cells in the presence of the compound to be tested in T25 flasks. CEM-SKI or other infected cells with no added drug are used as the control cells. Cells are allowed to grow to a density of approximately 1×10^6 cells/ml and are then passaged at a 1:10 dilution. After a period of time, usually one week intervals of drug treatment, cells are evaluated to determine if the inhibitory activity of the compound has been affected by treatment of the cells with either compounds. The drug concentration in the flask is then increased two-fold and the cells maintained as above.
The cell populations contain integrated copies of the HIV genome and constitutively produce HIV at relatively high levels or are latently infected and only produce virus after stimulation with phorbol esters, tumor necrosis factor or IL6(U1 and ACH2). Reductions in virus products were observed when quantifying supernatant reverse transcriptase activity,
Toxicity Values are measured by XTT and activity of the compound in the tests is measured by a Reverse Transcriptase analysis.
A long term in vitro study of 3-hexahydro-3-ethyl-1-methyl-2-oxo-1H-azepin-3-yl)phenyl ester of 4-chlorophenyl carbamic acid against an HIV-1 cell line, CEMIIIB was conducted at three different levels. The results with CEIIIB cells were reported at weekly intervals. The CEMIIIB is a […] of the CEMSS cell line and is a chronic HIV cell line.

## CCC1(c2cccc(OC(=O)Nc3ccc(Cl)cc3)c2)CCCCN(C)C1=O (stereo not shown) [(4-chlorophenyl)-carbamic acid, 3-(hexahydro-3-ethyl-1-methyl-2-oxo-1H-azepin-3-yl) 2 phenyl ester]
  Reverse transcriptase data, continued test: data remained consistent
7 μg/ml, Day 4
  Reverse transcriptase data: 1643
7 μg/ml, Day 11
  Reverse transcriptase data: 1294
7 μg/ml, Day 18
  Reverse transcriptase data: 1521
7 μg/ml, Day 25
  Reverse transcriptase data: 1725
7 μg/ml, Day 32
  Reverse transcriptase data: 1239
7 μg/ml, Day 39
  Reverse transcriptase data: 1341
7 μg/ml, Day 46
  Reverse transcriptase data: 1694
7 μg/ml, Day 53
  Reverse transcriptase data: 1287
7 μg/ml, Day 60
  Reverse transcriptase data: 1631
7 μg/ml, Day 67
  Reverse transcriptase data: 1245
7 μg/ml, Day 71
  Reverse transcriptase data: 1483
7 μg/ml, Day 74
  Reverse transcriptase data: 1502
7 μg/ml, Day 88
  Reverse transcriptase data: 7383
7 μg/ml, Day 95
  Reverse transcriptase data: 5512
7 μg/ml, Day 102
  Reverse transcriptase data: 8512
7 μg/ml, Day 109
  Reverse transcriptase data: 58104
15 μg/ml, Day 4
  Reverse transcriptase data: 1526
15 μg/ml, Day 11
  Reverse transcriptase data: 1168
15 μg/ml, Day 18
  Reverse transcriptase data: 1241
15 μg/ml, Day 25
  Reverse transcriptase data: 1361
15 μg/ml, Day 32
  Reverse transcriptase data: 1168
15 μg/ml, Day 39
  Reverse transcriptase data: 1162
15 μg/ml, Day 46
  Reverse transcriptase data: 1084
15 μg/ml, Day 53
  Reverse transcriptase data: 902
15 μg/ml, Day 60
  Reverse transcriptase data: 1310
15 μg/ml, Day 67
  Reverse transcriptase data: 1093
15 μg/ml, Day 71
  Reverse transcriptase data: 1056
15 μg/ml, Day 74
  Reverse transcriptase data: 763
15 μg/ml, Day 88
  Reverse transcriptase data: 4415
15 μg/ml, Day 95
  Reverse transcriptase data: 3205
15 μg/ml, Day 102
  Reverse transcriptase data: 6902
15 μg/ml, Day 109
  Reverse transcriptase data: 60170
30 μg/ml, Day 4
  Reverse transcriptase data: 602
30 μg/ml, Day 11
  Reverse transcriptase data: 265
30 μg/ml, Day 18
  Reverse transcriptase data: 581
30 μg/ml, Day 25
  Reverse transcriptase data: 496
30 μg/ml, Day 32
  Reverse transcriptase data: 268
30 μg/ml, Day 39
  Reverse transcriptase data: 381
30 μg/ml, Day 46
  Reverse transcriptase data: 562
30 μg/ml, Day 53
  Reverse transcriptase data: 308
30 μg/ml, Day 60
  Reverse transcriptase data: 241
30 μg/ml, Day 67
  Reverse transcriptase data: 301
30 μg/ml, Day 71
  Reverse transcriptase data: 321
30 μg/ml, Day 74
  Reverse transcriptase data: 202
30 μg/ml, Day 88
  Reverse transcriptase data: 370
30 μg/ml, Day 95
  Reverse transcriptase data: 299
30 μg/ml, Day 102
  Reverse transcriptase data: 928
30 μg/ml, Day 109
  Reverse transcriptase data: 2019
